Reference: US20180371422A1, “NON-VIRAL IPSCS INDUCING METHOD, COMPOSITIONS, KITS AND IPSCS” (Guangzhou Biocare Biotechnology Co., Ltd, priority 2016, published 2018)
Where a name gives a salt, the structure may show the parent alone.

System: urine-derived renal epithelial cells
Experiment: AP staining, efficiency of AP positive clones (iPSCs induction)
Assay type: cell-based, human
Details: Example 5; day 0 to day 8 of induction culture; FIG. 11-12
Procedure: 1. The procedure for AP staining is as follows,
a) Aspirate and remove the growth medium from the cultures to be stained when the cell culture is finished, wash the culture with 1×PBS one time; Fix the cells with 4% paraformaldehyde at room temperature for 2 min;
b) Aspirate the fixing solution, wash the culture with 1×TBST for 3 times; Balance with AP buffer at room temperature for 5 min;
c) Chromogenic reaction was performed with AP chromogenic reagent at room temperature in dark for 15 min (5-15 min, terminated when the color of clones became darker and without background, increase the reaction time appropriately if the clones were not stained). The chromogenic reagent was aspirated, cells were washed with 1×PBS for two times, covered with an appropriate amount of 1×PBS, observed and counted under a microscope.
Alkaline phosphatase (AP) is a phosphomonoesterase. The alkaline phosphatase in the cytoplasm can hydrolyze sodium naphthol phosphate to produce α-naphthol in alkaline environments. The latter reacts with a stable azo salt and presents a deep purple color, which the presence of alkaline phosphatase and the abundance of expression could be determined accordingly. Alkaline phosphatase is highly expressed in undifferentiated pluripotent stem cells, and the activity of alkaline phosphatase in the differentiated pluripotent stem cells is decreased. Therefore, whether the cells are clones of iPSCs could be determined by alkaline phosphatase staining (AP staining). And, thus the efficiency of iPSCs production can be easily judged according to the efficiency of AP positive clones.
a) Electroporation transformation: The recombinant plasmids obtained in step 1) were added into the culture of renal epithelial cells after digestion with trypsin, and then transferred into the renal epithelial cells. After electroporation, the cells were seeded on a cell culture plate coated with extracellular matrix;
b) Induction culture: 1-3 days after Step 1), or when the cells reached a confluence of 30% or more, the culture medium of pluripotent stem cell was used to continue induction culture. About 15-30 days after the mature of iPSCs clones, the positive clones of iPSCs were identified by AP staining, and the efficiency of AP positive clones was calculated accordingly;

SMILES: O=C(NOC[C@H](O)CO)c1ccc(F)c(F)c1Nc1ccc(I)cc1F [PD0325901]
- preferable concentration for promoting cell reprogramming (AP staining): 0.5 µM

SMILES: Cc1c[nH]c(-c2cnc(NCCNc3ccc(C#N)cn3)nc2-c2ccc(Cl)cc2Cl)n1 [CHIR-99021]
- preferable concentration for promoting cell reprogramming (AP staining): 3 µM

SMILES: N[C@@H]1C[C@H]1c1ccccc1 [tranylcypromine hydrochloride, Tranylcypromine hydrochloride]
- preferable concentration for promoting cell reprogramming (AP staining): 2 µM

SMILES: CCCC(=O)[O-].[Na+] [sodium butyrate, Sodium Butyrate]
- preferable concentration for promoting cell reprogramming (AP staining): 0.25 µM
